Series [1] relates to SMN2 minigene (full length SMN2 minigene mRNA containing SMN2 exon 7). Briefly: SMN2 minigene mRNA splicing RT-qPCR assay in cultured cells. Particulars: Homo sapiens, HEK293-H, read-out: EC1.5x for production of full length SMN2 mRNA. The format is cell-based, human. Put shortly: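 HEK293H cells stably carrying the SMN2-A minigene treated 24 h at 37° C with compound (DMSO, 200× stock), then lysed. Multiplex RT-qPCR (SMN primers 0.4 μM final; 40 cycles) measures full-length exon 7-containing minigene mRNA, normalized to GAPDH and to vehicle; EC1.5x derived and binned by stars.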

A further series has as its system Smn protein. The experiment in a line: Smn protein assay in cultured cells (SMN HTRF). The format is cell-based, human. Particulars: for EC1.5x (concentration giving 1.5-fold Smn protein increase): SMA Type 1 patient fibroblast cells (GM03813), 7-point concentration curve, SMN HTRF, concentration producing 1.5 times Smn protein vs DMSO vehicle control, read-out: EC1.5x for Smn protein expression. Put shortly:
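Lysates in RIPA with protease inhibitors are incubated overnight at room temperature with HTRF anti-SMN antibodies. EC1.5x is derived from fold increase in ΔF over vehicle.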
(In general: In TR-FRET formats the signal depends on donor and acceptor labels being close together.)

[2] abbreviates: SMA patient fibroblast cells, 48 hours, 7-point concentration data, fold increase relative to vehicle control (SMN HTRF).
Where [3] appears, read: HEK293H cells stably transfected with SMN2-A minigene, 24 hours, 7-point concentration curve, 1.5-fold relative to vehicle-treated cells.

The record followed here is patent publication USRE47689E1, “Compounds for treating spinal muscular atrophy” (PTC Therapeutics, Inc., priority 2011, dated 2019).

Where two headings read alike, the source gives them in different places.

As usually defined, the melting point is the temperature, or range, at which the solid turns liquid. `Cc1c[nH]nc1-c1cc2ccc(N3CCNCC3)cc2oc1=O` [Cpd 80, 3-(4-methyl-1H-pyrazol-3-yl)-7-(piperazin-1-yl)-2H-chromen-2-one]: the melting point was 175 to 200 °C (dec.). Further, in series [1] (24 h), the EC (1.5-fold) lay within 3 to 30 µM. Besides, the “maximum fold (Fold) increase of Smn protein” value (“maximum fold (Fold) increase” for short) in the series with Smn protein (setting [2]) was “** (fold increase between >1.2 and ≤1.35)”.

`CC(c1ccc2cc(-c3nc4ccccc4s3)c(=O)oc2c1)N(C)C` (stereo not drawn) [Cpd 143, 3-(1,3-benzothiazol-2-yl)-7-[1-(dimethylamino)ethyl]-2H-chromen-2-one]: the melting point was 130 to 133 °C. For the same compound, the EC (1.5-fold) in series [1] (setting [3]) lay in the range of 1 to 3 µM. Moreover, the “maximum fold (Fold) increase” value with Smn protein (setting [2]) is “*** (fold increase between >1.35 and ≤1.5)”.

Turning to `Cc1cn2cc(-c3cc4ccc(CCN5CCNCC5)cc4oc3=O)nc2c(C)n1` [Compound 866, 3-(6,8-dimethylimidazo[1,2-a]pyrazin-2-yl)-7-[2-(piperazin-1-yl)ethyl]-2H-chromen-2-one], the melting point was in the range of 186 to 188 °C. Further, in series [1] (setting [3]), the EC (1.5-fold) lay within 0.1 to 0.3 µM. The EC1.5x (concentration giving 1.5-fold Smn protein increase) in the series on Smn protein (48 hours) was 300 to 1000 nM. For the same compound, the “maximum fold (Fold) increase” value in the series with Smn protein (setting [2]) is “*** (fold increase between >1.35 and ≤1.5)”.

`Cc1cn2cc(-c3cc4ccc(N(C)C5CCN(C)C5)cc4oc3=O)nc2c(C)n1` (stereo not drawn) [Compound 615, 3-(6,8-dimethylimidazo[1,2-a]pyrazin-2-yl)-7-[methyl(1-methylpyrrolidin-3-yl)amino]-2H-chromen-2-one] came in with a melting point of 182 to 184 °C. The EC (1.5-fold) in series [1] (setting [3]) was less than 0.1 µM. In addition, the EC1.5x (concentration giving 1.5-fold Smn protein increase) with Smn protein (48 hours) is less than 300 nM. The “maximum fold (Fold) increase” value in the series on Smn protein (setting [2]) is “**** (fold increase between >1.5 and ≤1.65)”.

As to `CCN1CCN(c2ccc3cc(-c4cn5cc(C)ccc5n4)c(=O)oc3c2)CC1` [Compound 95, 7-(4-ethylpiperazin-1-yl)-3-(6-methylimidazo[1,2-a]pyridin-2-yl)-2H-chromen-2-one], the melting point is 266 to 269 °C. Besides, the EC (1.5-fold) in series [1] (setting [3]) lay in the range of 1 to 3 µM. The EC1.5x (concentration giving 1.5-fold Smn protein increase) in the series with Smn protein (48 hours) was less than 300 nM. In addition, the “maximum fold (Fold) increase” value in the series on Smn protein (setting [2]) is “**** (fold increase between >1.5 and ≤1.65)”.

Compound `CCN1CC[C@@H](Nc2ccc3cc(-c4cn5cc(C)nc(C)c5n4)c(=O)oc3c2)C1` [Compound 731, 3-(6,8-dimethylimidazo[1,2-a]pyrazin-2-yl)-7-{[(3R)-1-ethylpyrrolidin-3-yl]amino}-2H-chromen-2-one] showed a melting point of 209 to 215 °C. The EC (1.5-fold) in series [1] (setting [3]) is less than 0.1 µM. Also, the “maximum fold (Fold) increase” value with Smn protein (setting [2]) was “*** (fold increase between >1.35 and ≤1.5)”.

`C[C@@H]1CN(c2ccc3cc(-c4cn5cc(Cl)cnc5n4)c(=O)oc3c2)C[C@H](C)N1` [Compound 349, 3-(6-chloroimidazo[1,2-a]pyrimidin-2-yl)-7-[(3R,5S)-3,5-dimethylpiperazin-1-yl]-2H-chromen-2-one] registered a melting point of 265 to 271 °C. For the same compound, the EC (1.5-fold) in series [1] (setting [3]) was in the range of 1 to 3 µM. Further, the “maximum fold (Fold) increase” value with Smn protein (setting [2]) was “* (maximum fold increase of ≤1.2)”.

In turn, `Cc1nc(Cl)cn2cc(-c3cc4ccc(N5CCN6CCC[C@H]6C5)cc4oc3=O)nc12` [Compound 711, 3-(6-chloro-8-methylimidazo[1,2-a]pyrazin-2-yl)-7-[(8aS)-hexahydropyrrolo[1,2-a]pyrazin-2(1H)-yl]-2H-chromen-2-one] returned a melting point of 260 to 262 °C. Moreover, in series [1] (setting [3]), the EC (1.5-fold) was less than 0.1 µM. Moreover, the EC1.5x (concentration giving 1.5-fold Smn protein increase) in the series with Smn protein (48 hours) was 1000 to 3000 nM. For the same compound, in the series on Smn protein (setting [2]), the “maximum fold (Fold) increase” value was “*** (fold increase between >1.35 and ≤1.5)”.

In turn, `CN1CCCN(c2ccc3cc(-c4cn5cc(F)cc(F)c5n4)c(=O)oc3c2)CC1` [Cpd 520, 3-(6,8-difluoroimidazo[1,2-a]pyridin-2-yl)-7-(4-methyl-1,4-diazepan-1-yl)-2H-chromen-2-one] gave a melting point of 255 to 260 °C. Besides, the EC (1.5-fold) in series [1] (setting [3]) was 0.3 to 1 µM. For the same compound, the “maximum fold (Fold) increase” value in the series on Smn protein (setting [2]) is “** (fold increase between >1.2 and ≤1.35)”.

In the case of `Cc1ccn2cc(-c3cc4ccc(N5CCN[C@H](C)C5)cc4oc3=O)nc2n1` [Compound 228, 3-(7-methylimidazo[1,2-a]pyrimidin-2-yl)-7-[(3R)-3-methylpiperazin-1-yl]-2H-chromen-2-one], the melting point was in the range of 297 to 300 °C. Moreover, in series [1] (setting [3]), the EC (1.5-fold) lay in the range of 0.1 to 0.3 µM. Also, the “maximum fold (Fold) increase” value in the series on Smn protein (setting [2]) was “** (fold increase between >1.2 and ≤1.35)”.

Consider `CCN1CCC(c2ccc3cc(-c4ccc5nn(C)cc5c4)c(=O)oc3c2)CC1` [Compound 863, 7-(1-ethylpiperidin-4-yl)-3-(2-methyl-2H-indazol-5-yl)-2H-chromen-2-one], for which the melting point lay in the range of 196 to 198 °C. Besides, the EC (1.5-fold) in series [1] (setting [3]) lay in the range of 0.1 to 0.3 µM. In the series with Smn protein (48 hours), the EC1.5x (concentration giving 1.5-fold Smn protein increase) fell in the range of 300 to 1000 nM. The “maximum fold (Fold) increase” value in the series on Smn protein (setting [2]) is on record as “***** (fold increase >1.65)”.

`CC(=O)O.CC(=O)O.CC[C@H]1CN(c2ccc3cc(-c4cn5cc(C)nc(C)c5n4)c(=O)oc3c2)CCN1CC` [Compound 779, 7-[(3S)-3,4-diethylpiperazin-1-yl]-3-(6,8dimethylimidazo[1,2-a]pyrazin-2-yl)-2H-chromen-2-one acetate (1:2)] registered a melting point of 170 to 174 °C. Further, in series [1] (setting [3]), the EC (1.5-fold) was less than 0.1 µM. For the same compound, in the series on Smn protein (48 hours), the EC1.5x (concentration giving 1.5-fold Smn protein increase) was less than 300 nM. Besides, in the series on Smn protein (setting [2]), the “maximum fold (Fold) increase” value was “***** (fold increase >1.65)”.

In turn, `Cc1ccc2cc(-c3cc4ccc(N5CCNCC5)cc4oc3=O)cn2n1` [Cpd 641, 3-(2-methylpyrrolo[1,2-b]pyridazin-6-yl)-7-(piperazin-1-yl)-2H-chromen-2-one] displayed a melting point of 213 to 216 °C. The EC (1.5-fold) in series [1] (24 h) was 0.3 to 1 µM. Moreover, the “maximum fold (Fold) increase” value in the series with Smn protein was “* (key: *: maximum fold increase of ≤1.2; **: fold increase between >1.2 and ≤1.35; ***: fold increase between >1.35 and ≤1.5; ****: fold increase between >1.5 and ≤1.65; *****: fold increase >1.65)”.

With `CC(C)NCc1ccc2cc(-c3nc4ccccc4s3)c(=O)oc2c1` [Compound 8, 3-(1,3-benzothiazol-2-yl)-7-[(propan-2-ylamino)methyl]-2H-chromen-2-one], the melting point was 164 to 168 °C. For the same compound, the EC (1.5-fold) in series [1] (setting [3]) is 1 to 3 µM. The “maximum fold (Fold) increase” value in the series with Smn protein (setting [2]) is recorded as “* (maximum fold increase of ≤1.2)”.

`CN1CCN(c2ccc3cc(-c4cn5cccc(F)c5n4)c(=O)oc3c2)CC1` [Compound 150, 3-(8-fluoroimidazo[1,2-a]pyridin-2-yl)-7-(4-methylpiperazin-1-yl)-2H-chromen-2-one] showed a melting point of 278 to 280 °C. Besides, the EC (1.5-fold) in series [1] (setting [3]) was in the range of 0.3 to 1 µM. In addition, in the series on Smn protein (48 hours), the EC1.5x (concentration giving 1.5-fold Smn protein increase) is 3000 to 10000 nM. In addition, in the series on Smn protein (setting [2]), the “maximum fold (Fold) increase” value was “*** (fold increase between >1.35 and ≤1.5)”.

`Cc1cccc(Nc2cc3ccc(N4CCNCC4)cc3oc2=O)n1` [Compound 64, 3-[(6-methylpyridin-2-yl)amino]-7-(piperazin-1-yl)-2H-chromen-2-one] yielded a melting point of 135 to 137 °C. In addition, the EC (1.5-fold) in series [1] (setting [3]) fell in the range of 1 to 3 µM. In the series with Smn protein (setting [2]), the “maximum fold (Fold) increase” value is reported as “* (maximum fold increase of ≤1.2)”.

`CN(C)[C@H]1[C@@H]2CN(c3ccc4cc(-c5cn6ccsc6n5)c(=O)oc4c3)C[C@@H]21` [Compound 437, 7-[(1R,5S,6s)-6-(dimethylamino)-3-azabicyclo[3.1.0]hex-3-yl]-3-(imidazo[2,1-b][1,3]thiazol-6-yl)-2H-chromen-2-one] had a melting point of 233 to 235 °C. In addition, the EC (1.5-fold) in series [1] (setting [3]) lay within 1 to 3 µM. The “maximum fold (Fold) increase” value in the series with Smn protein (setting [2]) is “** (fold increase between >1.2 and ≤1.35)”.

Turning to `Cc1cn2cc(-c3cc4ccc(O[C@@H]5CCN(C(C)CO)C5)cc4oc3=O)nc2c(C)n1` (stereo partly drawn) [Compound 893, 3-(6,8-dimethylimidazo[1,2-a]pyrazin-2-yl)-7-{[(3R)-1-(1-hydroxypropan-2-yl)pyrrolidin-3-yl]oxy}-2H-chromen-2-one], the melting point is 196 to 202 °C. Also, the EC (1.5-fold) in series [1] (setting [3]) was less than 0.1 µM. Also, the EC1.5x (concentration giving 1.5-fold Smn protein increase) in the series with Smn protein (48 hours) was less than 300 nM. Moreover, in the series on Smn protein (setting [2]), the “maximum fold (Fold) increase” value is “***** (fold increase >1.65)”.

`O=c1oc2cc(N3CCNCC3)ccc2cc1-c1cccs1` [Compound 363, 7-(piperazin-1-yl)-3-(thiophen-2-yl)-2H-chromen-2-one]: the melting point lay within 193 to 195 °C. For the same compound, the EC (1.5-fold) in series [1] (24 h) lay within 1 to 3 µM. In the series with Smn protein (setting [2]), the “maximum fold (Fold) increase” value is “** (fold increase between >1.2 and ≤1.35)”.

The compound `CN1CCCN(c2ccc3cc(-c4nc(C(F)(F)F)cs4)c(=O)oc3c2)CC1` [Compound 238, 7-(4-methyl-1,4-diazepan-1-yl)-3-[4-(trifluoromethyl)-1,3-thiazol-2-yl]-2H-chromen-2-one] yielded a melting point of 218 to 225 °C. Moreover, in series [1] (setting [3]), the EC (1.5-fold) fell in the range of 1 to 3 µM. In the series with Smn protein (setting [2]), the “maximum fold (Fold) increase” value is recorded as “* (maximum fold increase of ≤1.2)”.

As for `Cc1cn2cc(-c3cc4c(F)cc(N5CCN(C)CC5)cc4oc3=O)nc2cn1` [Compound 592, 5-fluoro-3-(6-methylimidazo[1,2-a]pyrazin-2-yl)-7-(4-methylpiperazin-1-yl)-2H-chromen-2-one], the melting point fell in the range of 283 to 284 °C. For the same compound, the EC (1.5-fold) in series [1] (setting [3]) is less than 0.1 µM. Moreover, in the series on Smn protein (48 hours), the EC1.5x (concentration giving 1.5-fold Smn protein increase) is less than 300 nM. Also, in the series with Smn protein (setting [2]), the “maximum fold (Fold) increase” value is given as “***** (fold increase >1.65)”.
